Experimental data taken from the supplement of paper PMC10307832.

Compound: O=C(Nc1cccc(C(F)(F)F)c1)Nc1cc(S(=O)(=O)NC2CC2)ccc1-c1ccsc1 [AGI-6780] + CC(C)C[C@H](NC(=O)[C@H](Cc1ccccc1)NC(=O)c1cnccn1)B(O)O [Bortezomib] (partner 0.002 µM)
Assay: relative viability (nuclei count vs DMSO), 5 days (fraction); higher = more cells survive
Outline: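 Nuclei were stained with Hoechst during a one-step fixation (final 0.05% Triton X-100, 1% formaldehyde, 1 ug/ml Hoechst) carried out 5 days after dosing, then counted on 4× images. The cells, lung cancer lines in 1536-well plates, had been dosed by pin tool the day after seeding with one drug alone or a fixed anchor-drug dose plus five library-drug doses (not always all listed) in √10 steps. Relative viability is the nuclei count in treated wells divided by that in vehicle wells, and each value is the median of duplicate plates.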

| Cell Line | relative viability (first compound 0.08 µM) | relative viability (first compound 0.253 µM) | relative viability (first compound 0.8 µM) | relative viability (first compound 2.53 µM) | relative viability (first compound 8 µM) |
| --- | --- | --- | --- | --- | --- |
| HARA | 1.24 | 1.09 | 0.948 | 1.19 | 1.16 |
| H3255 | 0.572 | 0.739 | 0.836 | 0.69 | 0.865 |
| SK-LU-1 | 1.25 | 1.45 | 0.965 | 1.12 | 1.4 |
| EMC-BAC-2 | 1.14 | 1.03 | 1.1 | 0.856 | 1.14 |
| NCI-H2347 | 0.557 | 0.947 | 0.858 | 1.23 | 1.19 |
| EPLC-272H | 0.905 | 1.03 | 0.901 | 0.766 | 1.03 |
| LU99A | 1.11 | 1.04 | 0.99 | 0.92 | 1.26 |
| LXF-289 | 1.02 | 0.993 | 0.976 | 1.03 | 0.957 |
| NCI-H520 | 0.577 | 0.661 | 0.63 | 0.697 | 0.779 |
| 201T | 1.11 | 0.981 | 1.02 | 1.1 | 1.1 |
| NCI-H3122 | 1.11 | 1 | 1.05 | 1.05 | 0.999 |
| NCI-H1734 | 1.08 | 0.968 | 1.03 |  | 0.935 |
| NCI-H1792 | 0.834 | 0.917 | 1.01 | 0.867 | 0.862 |
| NCI-H2126 | 1.17 | 1.07 | 1.11 | 1.09 | 1.09 |
| NCI-H23 | 1.08 | 1.2 | 1.02 | 0.86 | 1.19 |
| PC-14 | 0.899 | 0.71 | 0.917 | 0.793 | 0.934 |
| NCI-H727 | 1.08 | 0.987 | 0.786 | 0.648 | 0.819 |
| NCI-H647 | 1 | 1.01 | 0.735 | 1.05 | 1.41 |
| EKVX | 1.12 | 1.07 | 1.05 | 0.697 | 0.958 |
| NCI-H838 | 0.965 | 0.692 | 0.952 | 1.05 | 1.18 |
| NCI-H1355 | 1.23 | 1.28 | 1.21 | 1.02 | 1.24 |
| ChaGo-K-1 | 0.772 | 1.02 | 1.08 | 1.01 | 0.932 |
| NCI-H2009 | 1.03 | 1.04 | 0.969 | 1.07 | 1.12 |

| Cell Line | relative viability (first compound 0.08 µM) | relative viability (first compound 0.253 µM) | relative viability (first compound 0.8 µM) | relative viability (first compound 2.53 µM) | relative viability (first compound 8 µM) |
| --- | --- | --- | --- | --- | --- |
| PC-3 [JPC-3] | 0.816 | 0.796 | 0.753 | 0.856 | 0.782 |
| NCI-H1563 | 1 | 0.918 | 0.843 | 0.75 | 0.824 |
| LCLC-97TM1 | 0.867 | 0.78 | 0.871 | 0.528 | 0.68 |
| NCI-H460 | 1.18 | 1.09 | 1.21 | 1.08 | 1.05 |
| UMC-11 | 0.671 | 0.712 | 1.06 |  | 1.04 |
| BEN | 0.657 | 0.813 | 0.852 |  | 0.754 |
| LCLC-103H | 1.11 | 1.17 | 1.02 | 0.939 | 1.18 |
| Calu-6 | 1.12 | 0.976 | 1.02 | 1.12 | 0.972 |
| NCI-H1651 | 0.831 | 0.988 | 1 | 0.893 | 0.957 |
| SW 1573 | 1.01 | 1.1 | 0.915 | 0.69 | 0.879 |
| NCI-H1975 | 0.337 | 0.303 | 0.34 | 0.331 | 0.351 |
| NCI-H650 | 0.835 | 0.926 | 0.882 | 0.751 | 0.961 |
| LC-2-ad | 1.02 | 1.05 | 0.994 | 1.04 | 1.01 |
| NCI-H2023 | 0.994 | 1.1 | 1.09 | 0.92 | 1.06 |
| NCI-H2228 | 1.11 | 1.07 | 0.811 | 0.896 | 0.886 |
| NCI-H1299 | 1.06 | 1.03 | 0.944 | 1.02 | 1.03 |
| NCI-H1650 | 0.181 | 0.196 | 0.216 | 0.206 | 0.183 |
| HCC-78 | 0.479 | 0.432 | 0.739 | 0.626 | 0.581 |
| RERF-LC-KJ | 1.06 | 1.16 | 1.15 | 0.798 | 1.09 |
| IA-LM | 0.91 | 0.876 | 0.811 | 0.977 | 0.829 |
| NCI-H1703 | 0.473 | 0.315 | 0.509 | 0.364 | 0.375 |
| NCI-H1437 | 0.562 | 0.569 | 0.703 | 0.563 | 0.747 |
| HOP-62 | 0.496 | 0.818 | 0.737 | 1.02 | 0.763 |

| Cell Line | relative viability (first compound 0.08 µM) | relative viability (first compound 0.253 µM) | relative viability (first compound 0.8 µM) | relative viability (first compound 2.53 µM) | relative viability (first compound 8 µM) |
| --- | --- | --- | --- | --- | --- |
| HCC-15 | 1.1 | 0.993 | 1.06 | 1.04 | 1.02 |
| HCC-44 | 0.927 | 0.887 | 0.884 | 0.843 | 0.928 |
| NCI-H441 | 0.514 | 0.601 | 0.831 | 0.45 | 0.387 |
| NCI-H2405 | 0.972 | 0.978 | 0.925 | 0.798 | 1.01 |
| NCI-H1993 | 1.09 | 1.13 | 1.25 | 0.764 | 1.12 |
| NCI-H596 |  | 1.04 | 0.761 | 0.918 | 1.13 |
| ABC-1 | 0.295 | 0.35 | 0.335 | 0.262 | 0.378 |
| A-427 | 1.13 | 1.02 | 1.06 | 0.917 | 0.991 |
| LOU-NH91 | 0.475 | 0.597 | 0.472 | 0.605 | 0.512 |
| HCC-366 | 1.1 | 1.06 | 1.03 | 1.02 | 1.11 |
| NCI-H661 | 0.78 | 0.933 | 0.758 | 0.694 | 0.771 |
| CAL-12T |  | 1.05 | 0.944 | 1.31 | 1.06 |
| NCI-H1666 | 0.819 | 0.838 | 0.782 |  | 0.857 |
| NCI-H1915 | 1.02 | 1 | 0.912 | 0.955 | 0.972 |
| NCI-H2085 | 1.04 | 1.09 | 1.02 | 1.08 | 1.13 |
| COR-L23 | 1.05 | 0.96 | 0.814 | 0.935 | 0.851 |
| NCI-H1755 | 1.01 | 0.98 | 0.967 | 0.83 | 1.01 |
| NCI-H322M | 1.08 | 1.15 | 1.35 | 1.27 | 1.39 |
| COR-L 105 | 0.886 | 0.896 | 0.993 | 0.766 | 0.813 |
| HCC-827 | 0.927 | 1.1 | 0.996 | 1.12 | 1.15 |
| NCI-H2087 | 0.824 | 0.958 | 0.77 | 0.997 | 0.879 |
